The values below come from patent US7183288B2, “Amide derivatives as glycogen synthase kinase 3-β inhibitors” (priority 2001, dated 2007).

By melting point is commonly meant the temperature of the solid-liquid transition. Broadly, the IC50 is the concentration that inhibits the measured activity by half. High values mean weaker potency, low ones greater potency.

Each structure is given as a SMILES string.

The target in one series is GSK3β (Homo sapiens, UniProt P49841). The experiment in a line: GSK3beta assay (SPA, biotinylated phosphorylated CREB peptide, ATP-P33). The class given is biochemical. As to conditions: -log IC50 (M); 19 nM GSK3β, 5 μM biotinylated phosphorylated CREB peptide, 1 μM ATP, 25° C., one hour. As for the experimental part:
GSK3beta assays were performed at 25° C. in a 100 μl reaction volume of 25 mM Tris (pH 7.4) containing 10 mM MgCl2, 1 mM DTT, 0.1 mg/ml BSA, 5% glycerol and containing 19 nM GSK3β, 5 μM biotinylated phosphorylated CREB peptide, 1 μM ATP, 2 nM ATP-P^33 and a suitable amount of a test compound of formula (I) or (I′). After one hour, the reaction was terminated by adding 70 μl of Stop mix (1 mM ATP, 18 mg/ml streptavidin coated PVT SPA bead pH 11.0). The beads to which the phosphorylated CREB peptide is attached were allowed to settle for 30 minutes and the radioactivity of the beads was counted in a microtiterplate scintillation counter and compared with the results obtained in a control experiment (without the presence of a test compound) in order to determine the percentage of GSK3β inhibition. The IC50 value, i.e. the concentration (M) of the test compound at which 50% of GSK3β is inhibited, was calculated from the dose response curve obtained by performing the above-described GSK3β assay in the presence of different amounts of the test compound.

Chain of GSK3β (P49841 whole entry, species assumed): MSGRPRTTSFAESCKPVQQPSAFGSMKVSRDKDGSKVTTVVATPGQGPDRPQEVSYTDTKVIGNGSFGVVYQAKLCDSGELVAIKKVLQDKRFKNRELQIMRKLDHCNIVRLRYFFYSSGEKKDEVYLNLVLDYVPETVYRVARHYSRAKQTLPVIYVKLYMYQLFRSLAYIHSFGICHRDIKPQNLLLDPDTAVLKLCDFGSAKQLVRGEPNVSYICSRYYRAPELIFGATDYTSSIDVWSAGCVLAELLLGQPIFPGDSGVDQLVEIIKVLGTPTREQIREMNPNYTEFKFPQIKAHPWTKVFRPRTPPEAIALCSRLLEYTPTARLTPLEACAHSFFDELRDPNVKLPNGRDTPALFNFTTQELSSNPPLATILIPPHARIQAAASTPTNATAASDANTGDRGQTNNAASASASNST

In turn, `N#Cc1ccc(Nc2ncccc2C(N)=O)cc1OCc1ccccc1` [Compound 1, 2-(3-benzyloxy-4-cyano-phenylamino)-nicotinamide] yielded a melting point of 232 °C. At GSK3β, `N#Cc1ccc(Nc2nccc(C(N)=O)n2)cc1OCc1ccccc1` [Compound 2, 2-[[4-cyano-3-(phenylmethoxy)phenyl]amino]-4-pyrimidinecarboxamide] gave an IC50 of 5.01e-08 M. `CNC(=O)c1ccnc(Nc2ccc(C#N)c(OCc3ccccc3)c2)n1` [Compound 3] showed an IC50 at GSK3β of 5.5e-08 M. The IC50 values of the last two molecules are within 1.5-fold of each other. Regarding `CN(C)S(=O)(=O)Nc1cccc(COc2cc(Nc3nccc(C(N)=O)n3)ccc2C#N)c1` [Compound 8], the half-maximal inhibitory concentration (IC50) at GSK3β was 2.09e-08 M. With `N#Cc1ccc(Nc2nccc(C(N)=O)n2)cc1OCc1cc(C(F)(F)F)cc(C(F)(F)F)c1` [Compound 9], inhibition at GSK3β was half-maximal at 3.8e-07 M (IC50). Consider `Cc1cc(C)cc(COc2cc(Nc3nccc(C(N)=O)n3)ccc2C#N)c1` [Compound 10], for which, on GSK3β, the IC50 is 1.1e-07 M. `N#Cc1ccc(Nc2nccc(C(N)=O)n2)cc1OCCN1CCOCC1` [Compound 11] gave an IC50 against GSK3β of 2.63e-07 M. Same read-out and setting: the result for `CN(C)CCOc1cc(Nc2nccc(C(N)=O)n2)ccc1C#N` [Compound 12] reads 8.91e-07 M.

Regarding `COc1ccc(COc2cc(Nc3nccc(C(N)=O)n3)ccc2C#N)cc1` [Compound 13, 2-[[4-cyano-3-[(4-methoxyphenyl)methoxy]phenyl]amino]-4-pyrimidinecarboxamide], on GSK3β, inhibition was half-maximal at 5.25e-08 M (IC50). The molecule `N#Cc1ccc(Nc2nccc(C(N)=O)n2)cc1OCCC1COc2ccccc2O1` (centres unmarked) [Compound 14] showed an IC50 at GSK3β of 1.38e-07 M. Against the preceding molecule, the IC50 is about 2.6-fold higher. The same measure, in the same setting: as for `N#Cc1ccc(Nc2nccc(C(N)=O)n2)cc1O/C=C/c1ccccc1` [Compound 15], the figure is 1.32e-07 M; as for `CC(COc1cc(Nc2nccc(C(N)=O)n2)ccc1C#N)Oc1ccc(F)cc1` (centres unmarked) [Compound 16, 2-[[4-cyano-3-[2-(4-fluorophenoxy)propoxy]phenyl]amino]-4-pyrimidinecarboxamide], 3.89e-08 M; as for `N#Cc1ccc(Nc2nccc(C(N)=O)n2)cc1OCCOc1ccc(F)cc1F` [Compound 17], 2.45e-07 M. Turning to `N#Cc1ccc(Nc2nccc(C(N)=O)n2)cc1OCCCc1ccccc1` [Compound 18], the concentration for half-maximal inhibition (IC50) at GSK3β was 5.75e-08 M. `N#Cc1ccc(Nc2nccc(C(N)=O)n2)cc1OCc1nc2ccccc2s1` [Compound 19] had an IC50 against GSK3β of 4.57e-07 M. The same measure, in the same setting: the result for `N#Cc1ccc(Nc2nccc(C(N)=O)n2)cc1OCc1ccc2ccccc2n1` [Compound 21] reads 2.51e-08 M; that for `N#Cc1ccc(Nc2nccc(C(N)=O)n2)cc1OCC1CC(c2cccnc2)=NO1` (centres unmarked) [Compound 22], 2.34e-07 M. In turn, `N#Cc1ccc(Nc2nccc(C(N)=O)n2)cc1OCc1cccc2ccccc12` [Compound 23] showed an IC50 against GSK3β of 8.13e-08 M. Molecule `CCn1ccnc1COc1cc(Nc2nccc(C(N)=O)n2)ccc1C#N` [Compound 24] showed an IC50 at GSK3β of 4.79e-08 M. The molecule `NC(=O)c1ccnc(Nc2cccc(OCc3ccccc3)c2)n1` [Compound 25] gave an IC50 against GSK3β of 9.12e-08 M. As to `CCc1noc(COc2cc(Nc3nccc(C(N)=O)n3)ccc2C#N)n1` [Compound 26], the midpoint of inhibition on GSK3β, the IC50, lay at 4.37e-07 M. This IC50 is about 4.8-fold higher than that of the molecule before. As for `N#Cc1ccc(Nc2nccc(C(N)=O)n2)cc1` [Compound 29], the midpoint of inhibition against GSK3β, the IC50, lay at 1.48e-07 M. Take `COc1ccccc1COc1cc(Nc2nccc(C(N)=O)n2)ccc1C#N` [Compound 30, 2-[[4-cyano-3-[(2-methoxyphenyl)methoxy]phenyl]amino]-4-pyrimidinecarboxamide]: the midpoint of inhibition against GSK3β, the IC50, lay at 4.68e-08 M. Take `N#Cc1ccc(COc2cc(Nc3nccc(C(N)=O)n3)ccc2C#N)cc1` [Compound 31]: the IC50 against GSK3β is 9.55e-08 M. Same read-out and setting: as for `Cc1cccc(COc2cc(Nc3nccc(C(N)=O)n3)ccc2C#N)c1` [Compound 32], the figure is 6.46e-08 M.

`Cc1ccccc1COc1cc(Nc2nccc(C(N)=O)n2)ccc1C#N` [Compound 34] gave an IC50 against GSK3β of 1.78e-07 M. On to `Cc1ccc(COc2cc(Nc3nccc(C(N)=O)n3)ccc2C#N)cc1` [Compound 35], for which, at GSK3β, the IC50 is 1.55e-07 M. Same read-out and setting: the result for `N#Cc1ccc(Nc2nccc(C(N)=O)n2)cc1OCc1cccc(C(F)(F)F)c1` [Compound 36] reads 4.07e-07 M. Same read-out and setting: as for `N#Cc1ccc(Nc2nccc(C(N)=O)n2)cc1OCc1ccc2ccccc2c1` [Compound 38, 2-[[4-cyano-3-(2-naphthalenylmethoxy)phenyl]amino]-4-pyrimidinecarboxamide], the figure is 5.5e-08 M.
